# Patent US8962641B2, “Pyrimidine-substituted pyrrolidine derivatives, pharmaceutical compositions and uses thereof” (Boehringer Ingelheim International GmbH, priority 2013, dated 2015)
# Biological target: human ACC2 (Homo sapiens (Human), UniProt O00763)
# Test: ACC2 assay (spectrophotometric 384 well assay, NADH-linked kinetic method)
# Assay type: biochemical
# Settings: hACC2 construct lacking 128 N-terminal amino acids; coupled lactate dehydrogenase/pyruvate kinase reaction, 340 nm, 25° C.
# Protocol: Spectrophotometric 384 Well Assay
# Malonyl CoA formation by acetyl CoA carboxylases is stoichometrically linked to the consumption of ATP. ACC2 activity is measured in a NADH-linked kinetic method measuring ADP generated during the ACC reaction using a coupled lactate dehydrogenase/pyruvate kinase reaction.
# The protein is then expressed in insect cells using a baculoviral expression system. Protein purification is performed by anion exchange.
# All compounds are dissolved in dimethyl sulfoxide (DMSO) to a concentration of 10 mM.
# The enzymatic reaction is then started by addition of a mixture of NADH, acetyl Coenzyme A (both 200 μM f.c.) and ATP (500 uM f.c.). The decrease of the optical density (slope S) is then determined at 25° C. at a wavelength of 340 nm over 15 minutes in a spectrophotometric reader.
# Each assay microtiter plate contains wells with vehicle instead of compound as controls for the non-inhibited enzyme (100% CTL; ‘HIGH’) and wells without acetyl-CoA as controls for non-specific NADH degradation (0% CTL; ‘LOW’).
# Sequence of human ACC2 (O00763 129-2458): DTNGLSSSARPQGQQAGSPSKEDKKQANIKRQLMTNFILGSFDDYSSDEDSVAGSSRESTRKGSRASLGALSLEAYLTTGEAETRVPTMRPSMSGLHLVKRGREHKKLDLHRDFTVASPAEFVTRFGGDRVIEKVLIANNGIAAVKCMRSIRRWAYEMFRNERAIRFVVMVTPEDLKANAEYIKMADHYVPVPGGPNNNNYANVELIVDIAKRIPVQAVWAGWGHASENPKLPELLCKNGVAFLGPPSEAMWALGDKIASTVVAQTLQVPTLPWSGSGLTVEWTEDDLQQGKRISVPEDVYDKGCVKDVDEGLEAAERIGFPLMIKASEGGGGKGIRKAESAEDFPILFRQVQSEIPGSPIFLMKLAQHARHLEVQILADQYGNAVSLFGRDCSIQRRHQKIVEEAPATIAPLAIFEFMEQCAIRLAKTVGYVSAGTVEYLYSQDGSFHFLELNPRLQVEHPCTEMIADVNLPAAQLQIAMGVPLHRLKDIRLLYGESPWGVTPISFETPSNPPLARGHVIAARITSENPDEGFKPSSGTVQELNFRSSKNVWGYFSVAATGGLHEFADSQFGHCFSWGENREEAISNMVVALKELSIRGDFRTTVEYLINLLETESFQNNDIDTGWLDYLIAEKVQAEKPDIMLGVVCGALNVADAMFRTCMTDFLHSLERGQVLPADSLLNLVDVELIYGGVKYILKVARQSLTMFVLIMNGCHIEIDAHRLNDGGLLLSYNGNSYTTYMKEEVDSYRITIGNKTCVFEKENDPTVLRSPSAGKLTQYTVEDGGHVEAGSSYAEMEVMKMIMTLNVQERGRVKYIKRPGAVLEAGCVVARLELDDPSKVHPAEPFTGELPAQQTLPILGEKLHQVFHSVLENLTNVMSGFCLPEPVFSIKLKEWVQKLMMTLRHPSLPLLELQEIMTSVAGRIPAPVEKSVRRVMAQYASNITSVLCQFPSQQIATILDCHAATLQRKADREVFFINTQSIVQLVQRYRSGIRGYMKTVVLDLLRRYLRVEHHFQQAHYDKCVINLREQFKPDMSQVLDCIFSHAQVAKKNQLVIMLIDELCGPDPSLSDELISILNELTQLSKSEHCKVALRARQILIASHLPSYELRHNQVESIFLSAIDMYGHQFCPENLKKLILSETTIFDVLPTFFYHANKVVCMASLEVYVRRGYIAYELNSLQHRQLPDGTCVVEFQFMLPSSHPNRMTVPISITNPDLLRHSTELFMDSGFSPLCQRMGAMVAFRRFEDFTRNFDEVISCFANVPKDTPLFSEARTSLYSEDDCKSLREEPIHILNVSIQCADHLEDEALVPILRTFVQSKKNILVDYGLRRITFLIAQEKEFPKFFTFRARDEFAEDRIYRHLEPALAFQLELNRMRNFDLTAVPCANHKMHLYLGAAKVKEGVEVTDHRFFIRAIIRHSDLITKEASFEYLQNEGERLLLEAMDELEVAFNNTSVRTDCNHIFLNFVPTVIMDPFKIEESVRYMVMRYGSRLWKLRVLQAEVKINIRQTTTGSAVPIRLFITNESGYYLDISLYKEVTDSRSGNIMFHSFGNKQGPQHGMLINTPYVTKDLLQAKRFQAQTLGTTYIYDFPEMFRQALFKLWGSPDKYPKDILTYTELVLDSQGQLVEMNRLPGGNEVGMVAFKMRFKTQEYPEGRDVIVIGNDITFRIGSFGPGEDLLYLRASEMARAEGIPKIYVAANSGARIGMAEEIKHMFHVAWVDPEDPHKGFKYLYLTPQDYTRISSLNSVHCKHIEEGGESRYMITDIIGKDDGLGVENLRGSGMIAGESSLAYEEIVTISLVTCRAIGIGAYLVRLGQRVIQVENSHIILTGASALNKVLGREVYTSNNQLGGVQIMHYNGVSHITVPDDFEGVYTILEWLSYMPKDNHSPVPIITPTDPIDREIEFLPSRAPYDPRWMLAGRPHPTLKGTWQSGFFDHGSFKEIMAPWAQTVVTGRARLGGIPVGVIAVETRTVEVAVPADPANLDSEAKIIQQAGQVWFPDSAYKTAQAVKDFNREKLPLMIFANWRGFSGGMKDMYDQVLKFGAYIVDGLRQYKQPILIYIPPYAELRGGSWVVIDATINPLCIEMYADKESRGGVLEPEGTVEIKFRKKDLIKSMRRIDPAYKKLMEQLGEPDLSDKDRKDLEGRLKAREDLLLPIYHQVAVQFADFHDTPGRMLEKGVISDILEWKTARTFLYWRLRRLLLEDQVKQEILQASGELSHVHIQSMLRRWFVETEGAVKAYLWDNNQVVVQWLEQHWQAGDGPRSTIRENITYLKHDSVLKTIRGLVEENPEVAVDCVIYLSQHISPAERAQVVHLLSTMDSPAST
row,SMILES,IC50
1,CC(=O)N[C@@H](C)c1ccc(O[C@@H]2CCN(c3nc(N4C[C@@H]5C[C@H]4CO5)ncc3Cl)C2)cc1 [Example 8.146],984 nM
2,COc1c(OCC(C)(C)OC)ncnc1N1CC[C@@H](Oc2ccc([C@H](C)NC(C)=O)cc2)C1 [Example 7.61],233 nM
3,CCOc1ncnc(N2CC[C@@H](Oc3ccc([C@H](C)NC(C)=O)cc3)C2)c1C [Example 7.24],394 nM
4,CC(=O)N[C@@H](C)c1ccc(O[C@@H]2CCN(c3ncnc(N(C)C4CCCOC4)c3F)C2)cc1 (stereo partly shown) [Example 8.236],314 nM
5,CC(=O)N[C@@H](C)c1ccc(O[C@@H]2CCN(c3nccc(N4CC5(CCC5)C4)n3)C2)cc1 [Example 8.80],955 nM
6,CC(=O)N[C@@H](C)c1ccc(O[C@@H]2CCN(c3nc(N(C)CCC#N)ncc3F)C2)cc1 [Example 8.64],745 nM
7,CC(=O)N[C@@H](C)c1ccc(O[C@@H]2CCN(c3ccnc(C(F)(F)F)n3)C2)cc1 [Example 6.21],303 nM
8,CC(=O)N[C@@H](C)c1ccc(O[C@@H]2CCN(c3ncnc(N4CCc5nocc5C4)c3F)C2)cc1 [Example 8.212],998 nM
9,CC(=O)N[C@@H](C)c1ccc(O[C@@H]2CCN(c3ncnc(N4CCC(CO)C4)c3F)C2)cc1 (stereo partly shown) [Example 8.201],294 nM
10,COc1c(OCC(C)(C)O)ncnc1N1CC[C@@H](Oc2ccc([C@H](C)NC(C)=O)cc2)C1 [Example 7.58],355 nM
11,CC(=O)N[C@@H](C)c1ccc(O[C@@H]2CCN(c3ncc(OCC(C)C)cn3)C2)cc1 [Example 6.20],974 nM
12,CC(=O)N[C@@H](C)c1ccc(O[C@@H]2CCN(c3cc(N(C)CC4CC4)ncn3)C2)cc1 [Example 8.2],424 nM
13,COc1c(NCC2(O)CCC2)ncnc1N1CC[C@@H](Oc2ccc([C@H](C)NC(C)=O)cc2)C1 [Example 8.300],537 nM
14,CC(=O)N[C@@H](C)c1ccc(O[C@@H]2CCN(c3ccnc(N4CCOC(C)C4)n3)C2)cc1 (stereo partly shown) [Example 8.84],212 nM
15,"COc1cccc(-c2nccc(N3CC[C@@H](Oc4ccc([C@H](C)NC(C)=O)cc4)C3)n2)c1 [Example 9.1, N—((S)-1-(4-((R)-1-(2-(3-methoxyphenyl)pyrimidin-4-yl)pyrrolidin-3-yloxy)phenyl)ethyl)acetamide]",725 nM
16,CC(=O)N[C@@H](C)c1ccc(O[C@@H]2CCN(c3ccnc(N4C[C@@H]5CC[C@@H](C4)O5)n3)C2)cc1 [Example 8.277],867 nM
17,CC(=O)N[C@@H](C)c1ccc(O[C@@H]2CCN(c3ncnc(N(C)C)c3F)C2)cc1 [Example 8.93],440 nM

row,SMILES,IC50
1,COC(=O)N[C@@H](C)c1ccc(OC2CCN(c3ccnc(N4CCOCC4)n3)C2)cc1 (stereo partly shown) [Example 4.2],244 nM
2,CCCNc1ncnc(N2CC[C@@H](Oc3ccc([C@H](C)NC(=O)c4sc(NC(=O)CC)nc4C)cc3)C2)c1F [Example 8.318],703 nM
3,CC(=O)N[C@@H](C)c1ccc(O[C@@H]2CCN(c3ncnc(C4CC4)c3Cl)C2)cc1 [Example 9.2],987 nM
4,CC(=O)N[C@@H](C)c1ccc(O[C@@H]2CCN(c3cc(OCC4CC4(F)F)ncn3)C2)cc1 (stereo partly shown) [Example 7.5],842 nM
5,CCN(C)C(=O)N[C@@H](C)c1ccc(OC2CCN(c3ccnc(N4CCOCC4)n3)C2)cc1 (stereo partly shown) [Example 3.7],374 nM
6,CC(=O)N[C@@H](C)c1ccc(O[C@@H]2CCN(c3ncnc(N4CC(C)(O)C4)c3F)C2)cc1 [Example 8.237],749 nM
7,CCC(C)Nc1ncnc(N2CC[C@@H](Oc3ccc([C@H](C)NC(C)=O)cc3)C2)c1Cl (stereo partly shown) [Example 8.314],345 nM
8,CC(=O)N[C@@H](C)c1ccc(O[C@@H]2CCN(c3ccnc(N4CCOC(C)(C)C4)n3)C2)cc1 [Example 8.89],293 nM
9,CC(=O)N[C@@H](C)c1ccc(O[C@@H]2CCN(c3ccnc(N4CCCC4C)n3)C2)cc1 (stereo partly shown) [Example 8.16],354 nM
10,CC(=O)N[C@@H](C)c1ccc(O[C@@H]2CCN(c3nc(NC4(C)CCCC4)ncc3F)C2)cc1 [Example 8.36],539 nM
11,CC(=O)N[C@@H](C)c1ccc(O[C@@H]2CCN(c3nc(N4CCCC4(C)C)ncc3Cl)C2)cc1 [Example 8.152],215 nM
12,CC(=O)N[C@@H](C)c1ccc(O[C@@H]2CCN(c3nc(N4CCOC(C)(C)C4)ncc3Cl)C2)cc1 [Example 8.209],351 nM
13,CC(=O)N[C@@H](C)c1ccc(O[C@@H]2CCN(c3nc(N(C)C4CCCOC4)ncc3Cl)C2)cc1 (stereo partly shown) [Example 8.255],303 nM
14,CC(=O)N[C@@H](C)c1ccc(O[C@@H]2CCN(c3ccnc(N4CC=CC4)n3)C2)cc1 [Example 8.196],277 nM
15,CC(=O)N[C@@H](C)c1ccc(O[C@@H]2CCN(c3ccnc(N(CCC#N)C4CC4)n3)C2)cc1 [Example 8.107],522 nM
16,CC(=O)N[C@@H](C)c1ccc(O[C@@H]2CCN(c3ccnc(N4[C@H](C)COC[C@@H]4C)n3)C2)cc1 [Example 8.90],364 nM
17,CC(=O)N[C@@H](C)c1ccc(O[C@@H]2CCN(c3ncnc(N4CC[C@@H](F)C4)c3F)C2)cc1 [Example 8.162],476 nM

# Now from value to compound:
row,IC50,SMILES
1,57 nM,CC(=O)N[C@@H](C)c1ccc(O[C@@H]2CCN(c3nc(N4CCC[C@H]4C)ncc3F)C2)cc1 [Example 8.283]
2,42 nM,CC(=O)N[C@@H](C)c1ccc(O[C@@H]2CCN(c3ncnc(OCC4CC4(F)F)c3Cl)C2)cc1 (stereo partly shown) [Example 7.40]
3,165 nM,CC(=O)N[C@@H](C)c1ccc(O[C@@H]2CCN(c3ncnc(N4CCC[C@H]4C)c3F)C2)cc1 [Example 8.286]
4,117 nM,CCN(C)c1nccc(N2CCC(Oc3ccc([C@H](C)NC(=O)N(C)C)cc3)C2)n1 (stereo partly shown) [Example 3.9]
5,75 nM,CC(=O)N[C@@H](C)c1ccc(O[C@@H]2CCN(c3nc(N(C)C[C@@H]4CCCO4)ncc3F)C2)cc1 [Example 8.165]
6,69 nM,CC(=O)N[C@@H](C)c1ccc(O[C@@H]2CCN(c3ncnc(OCC(C)C)c3F)C2)cc1 [Example 7.28]
7,75 nM,CC(=O)N[C@@H](C)c1ccc(O[C@@H]2CCN(c3ccnc(N(C)CCC(F)(F)F)n3)C2)cc1 [Example 8.206]
8,208 nM,Cc1nocc1C(=O)N[C@@H](C)c1ccc(OC2CCN(c3ccnc(N4CCOCC4)n3)C2)cc1 (stereo partly shown) [Example 2.4]
9,89 nM,CC(=O)N[C@@H](C)c1ccc(O[C@@H]2CCN(c3nc(N4CCC[C@H]4C)ncc3Cl)C2)cc1 [Example 8.285]
10,79 nM,CC(=O)N[C@@H](C)c1ccc(O[C@@H]2CCN(c3ccnc(N4CCC(F)(F)C4)n3)C2)cc1 [Example 8.43]
11,111 nM,CC(=O)N[C@@H](C)c1ccc(O[C@@H]2CCN(c3ncnc(N4CC[C@](C)(O)C4)c3F)C2)cc1 [Example 8.291]
12,49 nM,CC(=O)N[C@@H](C)c1ccc(O[C@@H]2CCN(c3ncnc(OCCCF)c3F)C2)cc1 [Example 7.31]
13,45 nM,CCCOc1ncnc(N2CC[C@@H](Oc3ccc([C@H](C)NC(C)=O)cc3)C2)c1Cl [Example 7.21]
14,96 nM,CC(=O)N[C@@H](C)c1ccc(O[C@@H]2CCN(c3nc(N4CCC(F)(F)CC4)ncc3F)C2)cc1 [Example 8.261]
15,99 nM,CC(=O)N[C@@H](C)c1ccc(O[C@@H]2CCN(c3ncnc(OC[C@H]4CC4(F)F)c3F)C2)cc1 [Example 7.45]
16,160 nM,CCN(CCOC)c1nccc(N2CC[C@@H](Oc3ccc([C@H](C)NC(C)=O)cc3)C2)n1 [Example 8.106]
17,165 nM,CC(=O)N[C@@H](C)c1ccc(O[C@@H]2CCN(c3nc(N4CC=CC4)ncc3F)C2)cc1 [Example 8.244]
18,97 nM,COc1c(OC(C)C)ncnc1N1CC[C@@H](Oc2ccc([C@H](C)NC(C)=O)cc2)C1 [Example 7.50]
19,65 nM,"COC(=O)N[C@@H](C)c1ccc(O[C@@H]2CCN(c3ccnc(N(C)CC(F)F)n3)C2)cc1 [Example 4.1, Methyl (S)-1-(4-((R)-1-(2-((2,2-difluoroethyl)(methyl)amino)pyrimidin-4-yl)pyrrolidin-3-yloxy)phenyl)ethylcarbamate]"
20,182 nM,CC(=O)N[C@@H](C)c1ccc(O[C@@H]2CCN(c3nc(N4CCCOCC4)ncc3Cl)C2)cc1 [Example 8.220]
21,209 nM,CC(=O)N[C@@H](C)c1ccc(O[C@@H]2CCN(c3ncnc(NC4CCCC4)c3F)C2)cc1 [Example 8.119]
22,87 nM,C[C@H](NC(=O)c1cnco1)c1ccc(OC2CCN(c3ncnc(OCC4CC4)c3F)C2)cc1 (stereo partly shown) [Example 2.21]
23,118 nM,COC[C@@H]1CCN(c2ncc(Cl)c(N3CC[C@@H](Oc4ccc([C@H](C)NC(C)=O)cc4)C3)n2)C1 [Example 8.188]
24,97 nM,CC(=O)N[C@@H](C)c1ccc(O[C@@H]2CCN(c3ncnc(N4CCC(F)(F)CC4)c3F)C2)cc1 [Example 8.251]
25,180 nM,CCN(CC)c1ncnc(N2CC[C@@H](Oc3ccc([C@H](C)NC(C)=O)cc3)C2)c1C [Example 8.100]
26,70 nM,CC(=O)N[C@@H](C)c1ccc(O[C@@H]2CCN(c3ncnc(NCC4(O)CCC4)c3Cl)C2)cc1 [Example 8.299]
27,113 nM,CC(=O)N[C@@H](C)c1ccc(O[C@@H]2CCN(c3ncnc(NCC(C)(C)O)c3Cl)C2)cc1 [Example 8.296]
28,60 nM,CC(=O)N[C@@H](C)c1ccc(O[C@@H]2CCN(c3ncnc(OCC(C)(F)F)c3Cl)C2)cc1 [Example 7.39]
29,190 nM,CC(=O)N[C@@H](C)c1ccc(O[C@@H]2CCN(c3nc(NC4CCCC4)ncc3F)C2)cc1 [Example 8.10]
30,50 nM,C[C@H](NC(=O)Nc1ccon1)c1ccc(OC2CCN(c3ncnc(OCC4CC4)c3F)C2)cc1 (stereo partly shown) [Example 3.13]
